The subject of experiment [1] is Caco-2 cells. The experiment is described as follows: Proliferation Assay Caco-2 (crystal violet). Type of experiment: cell-based. Particulars: Homo sapiens, Caco-2, Caco-2 cells; read-out: Inhibition of Caco-2 cell proliferation IC50.
Procedure: After 24 hours, the cells of one plate (zero plate) were dyed with crystal violet (see below), whereas the medium of the other plates was replaced with fresh culture medium (200 μl) to which the test substances were added in various concentrations (0 μM, and also in the range of 0.001-10 μM; the final concentration of the solvent dimethyl sulphoxide was 0.1 or 0.5%). The cells were incubated for 4 days in the presence of the test substances. […] After washing the fixed cells three times with water, the plates were dried at room temperature. The cells were stained by adding 100 μl/measurement point of a 0.1% strength crystal violet solution (pH adjusted to pH 3 by adding acetic acid). After washing the cells three times with water, the plates were dried at room temperature. The dye was dissolved by adding 100 μl/measurement point of a 10% strength acetic acid solution. […] The percentage change in cell growth was calculated by normalizing the measured values to the absorbance values of the zero plate (=0%) and the absorbance of the untreated (0 μM) cells (=100%). The IC50 values were determined by means of a four parameter fit.
For experiment [2], the target named is full-length human ATR protein (Homo sapiens (Human), UniProt Q13535). The experiment is described as follows: Binding Assay ATR (TR-FRET tracer displacement). The settings on record: tracer A. (Time-resolved FRET reads energy transfer from a long-lived donor to a nearby acceptor.)
full-length human ATR protein, sequence (Q13535 other isoform, or with tags, fused parts or gaps): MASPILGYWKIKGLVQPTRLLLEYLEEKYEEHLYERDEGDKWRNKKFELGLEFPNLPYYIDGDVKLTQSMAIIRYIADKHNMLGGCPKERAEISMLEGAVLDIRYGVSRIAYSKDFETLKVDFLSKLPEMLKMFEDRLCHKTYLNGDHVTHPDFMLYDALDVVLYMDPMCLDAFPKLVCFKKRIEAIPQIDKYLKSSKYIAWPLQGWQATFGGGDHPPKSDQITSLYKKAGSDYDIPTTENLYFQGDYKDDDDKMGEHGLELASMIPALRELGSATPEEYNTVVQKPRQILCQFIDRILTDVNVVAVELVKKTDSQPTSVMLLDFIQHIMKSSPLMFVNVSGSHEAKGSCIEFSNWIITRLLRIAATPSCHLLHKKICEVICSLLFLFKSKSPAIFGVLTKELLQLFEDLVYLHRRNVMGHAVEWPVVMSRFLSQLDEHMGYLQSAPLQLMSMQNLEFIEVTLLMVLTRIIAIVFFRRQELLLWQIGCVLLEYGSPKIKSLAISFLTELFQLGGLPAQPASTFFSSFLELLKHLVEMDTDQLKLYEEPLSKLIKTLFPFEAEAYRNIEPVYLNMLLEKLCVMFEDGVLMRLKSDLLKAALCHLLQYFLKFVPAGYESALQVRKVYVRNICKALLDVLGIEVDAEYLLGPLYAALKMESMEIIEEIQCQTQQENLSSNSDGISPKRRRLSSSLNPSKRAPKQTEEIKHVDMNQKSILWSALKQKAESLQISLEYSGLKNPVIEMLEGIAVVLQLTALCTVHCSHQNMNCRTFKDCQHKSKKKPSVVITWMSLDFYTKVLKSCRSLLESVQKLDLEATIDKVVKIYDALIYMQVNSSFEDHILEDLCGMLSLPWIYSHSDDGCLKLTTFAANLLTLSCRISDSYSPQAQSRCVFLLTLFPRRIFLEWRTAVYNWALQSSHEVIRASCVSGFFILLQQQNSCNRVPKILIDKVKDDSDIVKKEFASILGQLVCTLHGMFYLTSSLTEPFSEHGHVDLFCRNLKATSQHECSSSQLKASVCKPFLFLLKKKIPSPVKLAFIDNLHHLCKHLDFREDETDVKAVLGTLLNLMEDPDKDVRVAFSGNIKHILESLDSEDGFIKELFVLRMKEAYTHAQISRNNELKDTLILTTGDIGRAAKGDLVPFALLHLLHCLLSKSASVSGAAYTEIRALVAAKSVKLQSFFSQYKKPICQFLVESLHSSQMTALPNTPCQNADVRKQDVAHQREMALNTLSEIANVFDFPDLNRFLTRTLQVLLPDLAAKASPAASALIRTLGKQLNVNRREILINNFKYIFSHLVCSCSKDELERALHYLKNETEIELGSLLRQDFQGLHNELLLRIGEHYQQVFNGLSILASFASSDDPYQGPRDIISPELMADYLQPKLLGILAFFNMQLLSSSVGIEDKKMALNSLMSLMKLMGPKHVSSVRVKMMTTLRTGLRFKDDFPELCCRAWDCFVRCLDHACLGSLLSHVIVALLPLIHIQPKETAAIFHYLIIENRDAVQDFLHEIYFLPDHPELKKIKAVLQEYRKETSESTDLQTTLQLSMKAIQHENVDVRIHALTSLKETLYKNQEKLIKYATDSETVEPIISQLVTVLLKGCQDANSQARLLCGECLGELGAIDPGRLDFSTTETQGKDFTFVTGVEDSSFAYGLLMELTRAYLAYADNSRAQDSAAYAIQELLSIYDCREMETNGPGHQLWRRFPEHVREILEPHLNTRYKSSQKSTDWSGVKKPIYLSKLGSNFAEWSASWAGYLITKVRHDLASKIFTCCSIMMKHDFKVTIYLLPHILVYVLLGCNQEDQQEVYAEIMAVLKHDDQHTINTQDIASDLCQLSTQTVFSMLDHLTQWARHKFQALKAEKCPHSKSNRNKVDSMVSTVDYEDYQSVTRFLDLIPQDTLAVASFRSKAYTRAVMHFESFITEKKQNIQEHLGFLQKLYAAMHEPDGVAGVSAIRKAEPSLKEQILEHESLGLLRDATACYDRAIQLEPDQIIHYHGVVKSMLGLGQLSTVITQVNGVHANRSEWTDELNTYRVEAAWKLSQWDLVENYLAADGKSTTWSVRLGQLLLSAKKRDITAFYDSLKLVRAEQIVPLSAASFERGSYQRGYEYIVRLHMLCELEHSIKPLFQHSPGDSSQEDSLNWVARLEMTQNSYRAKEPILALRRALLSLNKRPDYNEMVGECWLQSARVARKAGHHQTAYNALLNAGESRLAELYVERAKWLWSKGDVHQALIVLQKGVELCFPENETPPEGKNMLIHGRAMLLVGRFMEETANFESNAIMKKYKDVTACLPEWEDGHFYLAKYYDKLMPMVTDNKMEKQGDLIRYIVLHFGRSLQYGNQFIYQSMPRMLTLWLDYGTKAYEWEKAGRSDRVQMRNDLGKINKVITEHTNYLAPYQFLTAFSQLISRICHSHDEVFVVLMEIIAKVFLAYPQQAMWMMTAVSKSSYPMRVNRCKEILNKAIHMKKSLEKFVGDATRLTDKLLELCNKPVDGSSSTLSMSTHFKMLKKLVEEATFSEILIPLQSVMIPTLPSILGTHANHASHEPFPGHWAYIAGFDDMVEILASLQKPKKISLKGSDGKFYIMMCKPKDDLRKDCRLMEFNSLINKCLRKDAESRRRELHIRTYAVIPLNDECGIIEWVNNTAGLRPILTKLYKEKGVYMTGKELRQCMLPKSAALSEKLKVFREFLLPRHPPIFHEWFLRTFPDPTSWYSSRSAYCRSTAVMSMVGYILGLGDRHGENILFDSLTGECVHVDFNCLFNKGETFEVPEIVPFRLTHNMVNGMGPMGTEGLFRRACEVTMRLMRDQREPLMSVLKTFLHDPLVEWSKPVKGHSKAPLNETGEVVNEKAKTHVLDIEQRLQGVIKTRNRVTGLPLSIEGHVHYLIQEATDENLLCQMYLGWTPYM
full-length human ATR protein, sequence (Q8WXE1 other isoform, or with tags, fused parts or gaps partner): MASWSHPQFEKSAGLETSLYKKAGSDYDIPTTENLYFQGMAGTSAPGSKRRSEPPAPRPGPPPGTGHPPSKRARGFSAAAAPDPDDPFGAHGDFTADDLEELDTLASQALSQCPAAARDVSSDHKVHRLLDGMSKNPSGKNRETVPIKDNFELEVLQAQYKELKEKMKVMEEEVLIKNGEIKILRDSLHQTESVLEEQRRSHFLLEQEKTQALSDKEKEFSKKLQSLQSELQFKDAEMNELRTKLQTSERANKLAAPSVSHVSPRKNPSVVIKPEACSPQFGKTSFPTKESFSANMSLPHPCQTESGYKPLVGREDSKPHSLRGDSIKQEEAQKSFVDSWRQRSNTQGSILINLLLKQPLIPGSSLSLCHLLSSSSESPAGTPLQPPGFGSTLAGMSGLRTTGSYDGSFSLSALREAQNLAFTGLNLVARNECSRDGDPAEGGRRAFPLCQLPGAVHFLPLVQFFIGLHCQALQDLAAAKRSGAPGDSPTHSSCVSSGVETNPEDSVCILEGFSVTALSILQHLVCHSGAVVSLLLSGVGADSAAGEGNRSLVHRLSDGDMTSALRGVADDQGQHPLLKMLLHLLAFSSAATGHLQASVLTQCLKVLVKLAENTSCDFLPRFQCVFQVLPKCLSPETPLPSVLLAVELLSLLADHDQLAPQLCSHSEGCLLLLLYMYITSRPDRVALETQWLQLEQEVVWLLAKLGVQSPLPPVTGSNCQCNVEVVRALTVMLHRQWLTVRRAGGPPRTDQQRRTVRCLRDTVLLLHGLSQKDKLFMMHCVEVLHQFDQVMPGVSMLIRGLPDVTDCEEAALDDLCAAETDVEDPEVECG
Source text: To determine of binding activity of the test compounds, full-length human ATR protein was expressed and purified together with ATRIP as described above. Furthermore, a fluorescently labelled compound (either tracer A or B as described above) was used as a tracer molecule. Detection of the binding event of the tracer was achieved by time-resolved fluorescence energy transfer (TR-FRET). We used an anti-GST-Terbium antibody (CisBio) that binds to the GST-tag at the N-terminus of ATR-kinase. […] Displacement of the fluorescent tracer by a test compound leads to a reduction of the TR-FRET-signal.
For the assay 50 nl of a 100-fold concentrated solution of the test compound in DMSO was pipetted into a black low volume 384 well microtiter plate (MTP, Greiner Bio-One, Frickenhausen, Germany). […] The ATR-working solution was incubated for 30 min at 22° C. prior to dispensing to pre-form the complex of antiGST-Tb+GST-ATR+ATRIP. Then, 3 μl of the ATR-working solution were added to the test compound and the mixture was incubated for 10 min at 22° C. to allow pre-binding of the test compounds to ATR/ATRIP. Then, 2 μl of a 100 nM solution of either tracer A or B in assay buffer were added to the ATR-working solution. The resulting mixture was incubated for 30 min at 22° C. […] IC50 values were calculated by a 4 parameter fit using standard software (GraphPad prism or equivalent).

Our source for the IC50 values is patent US11529356B2, “2-(morpholin-4-yl)-1,7-naphthyridines” (Bayer Pharma Aktiengesellschaft, priority 2014, dated 2022).

Where only a bound is given, the exact number is not on record here.

Turning to `Clc1cc(N2CCOCC2)nc2c(-c3cc[nH]n3)nccc12` [Example 62, 4-chloro-2-morpholin-4-yl-8-(1H-pyrazol-3-yl)-[1,7]naphthyridine], the IC50 in experiment [1] was more than 3000 nM.
In turn, `c1cc(-c2nccc3c(N4C[C@@H]5C[C@H]4CO5)cc(N4CCOCC4)nc23)[nH]n1` [Example 185, 2-(morpholin-4-yl)-4-[(1S,4S)-2-oxa-5-azabicyclo[2.2.1]hept-5-yl]-8-(1H-pyrazol-5-yl)-1,7-naphthyridine] gave an IC50 in experiment [2] of 852 nM.
